In US9302999B2, “Substituted triazoles as herbicides” (E. I. DU PONT DE NEMOURS AND COMPANY, priority 2012, dated 2016):

What was measured:
Assay type in all cases: in vivo
[1] = tested on: Italian ryegrass (LOLMU, Lolium multiflorum); test: Test H post-emergence, alone and in combination: Italian ryegrass
Source text: (§1) Seeds of plant species selected from wheat (TRZAW, Triticum aestivum), barley (HORBW, Hordeum vulgare), Kochia (KCHSC, Kochia caoparia) blackgrass (ALOMY, Alopecurus myosuroides), canarygrass (PHAMI, Phalaris minor), Italian ryegrass (LOLMU, Lolium multiflorum) common lambsquarter (CHEAL, Chenopodium album), pigweed (AMARE, Amaranthus retroflexus), Common Chickweed (STEME, Stellaria media), Russian thistle (SASKR, Salsola iberica), Wild Buckwheat (POLCO, Polygonum convolvulus), Catchweed Bedstraw (GALAP, Galium aparine), Mustard (SINAR, Sinapisar arvensis), Henbit Deadnettle (LAMAM, Lamium amplexicaule), Wild Radish (RAPRA, Raphanus raphanistrum), Field Poppy (PAPRH, Papaver rhoeas), Field Violet (VIOAR, Viola arvennsis), Scentless Chamomile (MATIN Matricaria inodora) were planted into soil and treated post-emergence with test chemicals formulated in a non-phytotoxic solvent mixture. Plants were grown in a greenhouse using supplemental lighting to maintain a photoperiod of approximately 14 hours; daytime and nighttime temperatures were approximately 23°-29° and 16°-19° Celsius, respectively. Balanced fertilizer was applied through the watering system. Treated plants and controls were maintained in a greenhouse for 20 days, after which time all species were compared to controls and visually evaluated. Plant response ratings were calculated as the mean of three replicates (unless otherwise indicated), are summarized in Table G, and are based on a scale of 0 to 100 where 0 is no effect and 100 is complete control. A dash (-) response means no test result.

[2] = tested on: Catchweed Bedstraw (GALAP, Galium aparine); test: Test H post-emergence, alone and in combination: Catchweed Bedstraw
Source text: as §1

[3] = tested on: Common Chickweed (STEME, Stellaria media); test: Test H post-emergence, alone and in combination: Common Chickweed
Source text: as §1

[4] = tested on: wheat (TRZAW, Triticum aestivum); test: Test H post-emergence, alone and in combination: wheat
Source text: as §1

[5] = tested on: canarygrass (PHAMI, Phalaris minor); test: Test H post-emergence, alone and in combination: canarygrass
Source text: as §1

[6] = tested on: Kochia (KCHSC, Kochia caoparia); test: Test H post-emergence, alone and in combination: Kochia
Source text: as §1

[7] = tested on: Mustard (SINAR, Sinapisar arvensis); test: Test H post-emergence, alone and in combination: Mustard
Source text: as §1

[8] = tested on: Wild Buckwheat (POLCO, Polygonum convolvulus); test: Test H post-emergence, alone and in combination: Wild Buckwheat
Source text: as §1

[9] = tested on: pigweed (AMARE, Amaranthus retroflexus); test: Test H post-emergence, alone and in combination: pigweed
Source text: as §1

[10] = tested on: Field Poppy (PAPRH, Papaver rhoeas); test: Test H post-emergence, alone and in combination: Field Poppy
Source text: as §1

[11] = tested on: barley (HORBW, Hordeum vulgare); test: Test H post-emergence, alone and in combination: barley
Source text: as §1

[12] = tested on: blackgrass (ALOMY, Alopecurus myosuroides); test: Test H post-emergence, alone and in combination: blackgrass
Source text: as §1

[13] = tested on: Field Violet (VIOAR, Viola arvennsis); test: Test H post-emergence, alone and in combination: Field Violet
Source text: as §1

[14] = tested on: Henbit Deadnettle (LAMAM, Lamium amplexicaule); test: Test H post-emergence, alone and in combination: Henbit Deadnettle
Source text: as §1

[15] = tested on: Wild Radish (RAPRA, Raphanus raphanistrum); test: Test H post-emergence, alone and in combination: Wild Radish
Source text: as §1

[16] = tested on: Russian thistle (SASKR, Salsola iberica); test: Test H post-emergence, alone and in combination: Russian thistle
Source text: as §1

[17] = tested on: Scentless Chamomile (MATIN Matricaria inodora); test: Test H post-emergence, alone and in combination: Scentless Chamomile
Source text: as §1

[18] = tested on: common lambsquarter (CHEAL, Chenopodium album); test: Test H post-emergence, alone and in combination: common lambsquarter
Source text: as §1

COC(=O)c1ccc(C(F)(F)F)nc1S(=O)(=O)NC(=O)Nc1nc(OC)cc(OC)n1 [b2b, flupyrsulfuron-methyl]
LOLMU plant response ([1]; Rate 8): 60 | LOLMU plant response ([1]; Rate 16): 60 | LOLMU plant response ([1]; Rate 31): 65 | LOLMU plant response ([1]; Rate 62): 80 | GALAP plant response ([2]; Rate 8): 90 | GALAP plant response ([2]; Rate 16): 95 | GALAP plant response ([2]; Rate 31): 90 | GALAP plant response ([2]; Rate 62): 100 | STEME plant response ([3]; Rate 8): 90 | STEME plant response ([3]; Rate 16): 100 | STEME plant response ([3]; Rate 31): 100 | STEME plant response ([3]; Rate 62): 100 | TRZAW plant response ([4]; Rate 8): 0 | TRZAW plant response ([4]; Rate 16): 5 | TRZAW plant response ([4]; Rate 31): 5 | TRZAW plant response ([4]; Rate 62): 25 | PHAMI plant response ([5]; Rate 8): 40 | PHAMI plant response ([5]; Rate 16): 55 | PHAMI plant response ([5]; Rate 31): 85 | PHAMI plant response ([5]; Rate 62): 90 | KCHSC plant response ([6]; Rate 8): 75 | KCHSC plant response ([6]; Rate 16): 100 | KCHSC plant response ([6]; Rate 31): 80 | KCHSC plant response ([6]; Rate 62): 95 | SINAR plant response ([7]; Rate 8): 100 | SINAR plant response ([7]; Rate 16): 95 | SINAR plant response ([7]; Rate 31): 100 | SINAR plant response ([7]; Rate 62): 100 | POLCO plant response ([8]; Rate 8): 100 | POLCO plant response ([8]; Rate 16): 85 | POLCO plant response ([8]; Rate 31): 100 | POLCO plant response ([8]; Rate 62): 100 | AMARI plant response ([9]; Rate 8): 100 | AMARI plant response ([9]; Rate 16): 100 | AMARI plant response ([9]; Rate 31): 100 | AMARI plant response ([9]; Rate 62): 100 | PAPRH plant response ([10]; Rate 8): 100 | PAPRH plant response ([10]; Rate 16): 90 | PAPRH plant response ([10]; Rate 31): 100 | PAPRH plant response ([10]; Rate 62): 95 | HORBW plant response ([11]; Rate 8): 20 | HORBW plant response ([11]; Rate 16): 30 | HORBW plant response ([11]; Rate 31): 60 | HORBW plant response ([11]; Rate 62): 70 | ALOMY plant response ([12]; Rate 8): 100 | ALOMY plant response ([12]; Rate 16): 100 | ALOMY plant response ([12]; Rate 31): 100 | ALOMY plant response ([12]; Rate 62): 100 | VIOAR plant response ([13]; Rate 8): 50 | VIOAR plant response ([13]; Rate 16): 75 | VIOAR plant response ([13]; Rate 31): 70 | VIOAR plant response ([13]; Rate 62): 95 | LAMAM plant response ([14]; Rate 8): 90 | LAMAM plant response ([14]; Rate 16): 95 | LAMAM plant response ([14]; Rate 31): 95 | LAMAM plant response ([14]; Rate 62): 90 | RAPRA plant response ([15]; Rate 8): 100 | RAPRA plant response ([15]; Rate 16): 100 | RAPRA plant response ([15]; Rate 31): 100 | RAPRA plant response ([15]; Rate 62): 100 | SASKR plant response ([16]; Rate 8): 50 | SASKR plant response ([16]; Rate 16): 50 | SASKR plant response ([16]; Rate 31): 50 | SASKR plant response ([16]; Rate 62): 60 | MATIN plant response ([17]; Rate 8): 90 | MATIN plant response ([17]; Rate 16): 95 | MATIN plant response ([17]; Rate 31): 100 | MATIN plant response ([17]; Rate 62): 95 | CHEAL plant response ([18]; Rate 8): 60 | CHEAL plant response ([18]; Rate 16): 85 | CHEAL plant response ([18]; Rate 31): 75 | CHEAL plant response ([18]; Rate 62): 80

COC(=O)c1sccc1S(=O)(=O)NC(=O)Nc1nc(C)nc(OC)n1 [b2c, thifensulfuron-methyl]
LOLMU plant response ([1]; Rate 8): 20 | LOLMU plant response ([1]; Rate 16): 50 | LOLMU plant response ([1]; Rate 31): 70 | LOLMU plant response ([1]; Rate 62): 90 | GALAP plant response ([2]; Rate 8): 80 | GALAP plant response ([2]; Rate 16): 90 | GALAP plant response ([2]; Rate 31): 75 | GALAP plant response ([2]; Rate 62): 95 | STEME plant response ([3]; Rate 8): 85 | STEME plant response ([3]; Rate 16): 100 | STEME plant response ([3]; Rate 31): 100 | STEME plant response ([3]; Rate 62): 100 | TRZAW plant response ([4]; Rate 8): 0 | TRZAW plant response ([4]; Rate 16): 0 | TRZAW plant response ([4]; Rate 31): 0 | TRZAW plant response ([4]; Rate 62): 5 | PHAMI plant response ([5]; Rate 8): 10 | PHAMI plant response ([5]; Rate 16): 60 | PHAMI plant response ([5]; Rate 31): 70 | PHAMI plant response ([5]; Rate 62): 90 | KCHSC plant response ([6]; Rate 8): 70 | KCHSC plant response ([6]; Rate 16): 85 | KCHSC plant response ([6]; Rate 31): 95 | KCHSC plant response ([6]; Rate 62): 100 | SINAR plant response ([7]; Rate 8): 80 | SINAR plant response ([7]; Rate 16): 90 | SINAR plant response ([7]; Rate 31): 85 | SINAR plant response ([7]; Rate 62): 95 | POLCO plant response ([8]; Rate 8): 95 | POLCO plant response ([8]; Rate 16): 95 | POLCO plant response ([8]; Rate 31): 95 | POLCO plant response ([8]; Rate 62): 95 | AMARI plant response ([9]; Rate 8): 100 | AMARI plant response ([9]; Rate 16): 100 | AMARI plant response ([9]; Rate 31): 100 | AMARI plant response ([9]; Rate 62): 100 | PAPRH plant response ([10]; Rate 8): 70 | PAPRH plant response ([10]; Rate 16): 75 | PAPRH plant response ([10]; Rate 31): 100 | PAPRH plant response ([10]; Rate 62): 100 | HORBW plant response ([11]; Rate 8): 0 | HORBW plant response ([11]; Rate 16): 5 | HORBW plant response ([11]; Rate 31): 5 | HORBW plant response ([11]; Rate 62): 5 | ALOMY plant response ([12]; Rate 8): 10 | ALOMY plant response ([12]; Rate 16): 45 | ALOMY plant response ([12]; Rate 31): 60 | ALOMY plant response ([12]; Rate 62): 65 | VIOAR plant response ([13]; Rate 8): 80 | VIOAR plant response ([13]; Rate 16): 85 | VIOAR plant response ([13]; Rate 31): 75 | VIOAR plant response ([13]; Rate 62): 95 | LAMAM plant response ([14]; Rate 8): 60 | LAMAM plant response ([14]; Rate 16): 70 | LAMAM plant response ([14]; Rate 31): 75 | LAMAM plant response ([14]; Rate 62): 75 | RAPRA plant response ([15]; Rate 8): 95 | RAPRA plant response ([15]; Rate 16): 75 | RAPRA plant response ([15]; Rate 31): 100 | RAPRA plant response ([15]; Rate 62): 95 | SASKR plant response ([16]; Rate 8): 100 | SASKR plant response ([16]; Rate 16): 100 | SASKR plant response ([16]; Rate 31): 100 | SASKR plant response ([16]; Rate 62): 100 | MATIN plant response ([17]; Rate 8): 95 | MATIN plant response ([17]; Rate 16): 90 | MATIN plant response ([17]; Rate 31): 100 | MATIN plant response ([17]; Rate 62): 100 | CHEAL plant response ([18]; Rate 8): 85 | CHEAL plant response ([18]; Rate 16): 70 | CHEAL plant response ([18]; Rate 31): 100 | CHEAL plant response ([18]; Rate 62): 95
